Measurements: PubChem BioAssay (NCI)
Values joined by “and” are separate entries in the source; they are usually repeats but may differ in a detail not shown here. Equal values may be shown once.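 Test compounds were applied to cells in 96-well plates for 48 hours at 5 doses. GI50 = concentration required for 50% inhibition of growth. At the TGI there is no net growth.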

Legend:
Assay in all cases: NCI tumour cell line growth inhibition, 48 h
A549 NSCLC = system: A549 NSCLC
COLO 205 colon = system: COLO 205 colon
DU-145 prostate = system: DU-145 prostate
HT29 colon = system: HT29 colon
IGROV1 ovarian = system: IGROV1 ovarian
LOX IMVI melanoma = system: LOX IMVI melanoma
NCI-H23 lung = system: NCI-H23 lung
OVCAR-5 ovarian = system: OVCAR-5 ovarian
OVCAR-8 ovarian = system: OVCAR-8 ovarian
UO-31 renal = system: UO-31 renal

Row | Structure (SMILES) | TGI (A549 NSCLC) | TGI (COLO 205 colon) | TGI (DU-145 prostate) [µM] | TGI (HT29 colon) | TGI (IGROV1 ovarian) | TGI (LOX IMVI melanoma) | TGI (NCI-H23 lung) | TGI (OVCAR-5 ovarian) [µM] | TGI (OVCAR-8 ovarian) | TGI (UO-31 renal) | GI50 (A549 NSCLC) | GI50 (DU-145 prostate) [µM] | GI50 (HT29 colon) | GI50 (IGROV1 ovarian) | GI50 (LOX IMVI melanoma) | GI50 (NCI-H23 lung) [µM] | GI50 (OVCAR-5 ovarian) [µM] | GI50 (OVCAR-8 ovarian) | GI50 (UO-31 renal) | GI50 (COLO 205 colon) [µM]
1 | N[C@H]1CCC[C@@H](O)C1O (some centres undefined) | > 100 µM | > 100 µM | > 100 | > 100 µM | > 100 µM | > 100 µM | > 100 µM | > 100 | > 100 µM | > 100 µM | – | – | – | – | – | – | – | – | – | –
2 | CCC/C=C/C=C/C(=O)OC1/C(=C/C(=O)OC)CC2CC(C(C)O)OC(=O)CC(O)CC3CC(OC(C)=O)C(C)(C)C(O)(CC4C/C(=C/C(=O)OC)CC(/C=C/C(C)(C)C1(O)O2)O4)O3 (centres undefined) | 8.17 µM and 11 µM and > 12.5 µM | 6.88 µM and 11 µM and > 12.5 µM | > 12.5 | > 10.9 µM and 10.8 µM and > 12.5 µM | > 10.9 µM and 6.06 µM and > 12.5 µM | > 10.9 µM and 11 µM and > 12.5 µM | > 10.9 µM and 11 µM and > 12.5 µM | > 12.5 | > 10.9 µM and 11 µM and > 12.5 µM | > 10.9 µM and 5.23 µM and > 12.5 µM | 2.58 µM and 5.95 µM and > 12.5 µM | > 11 | > 10.9 µM and 5.12 µM and > 12.5 µM | > 10.9 µM and 5.09 µM and > 12.5 µM | > 10.9 µM and 8.02 µM and > 12.5 µM | > 12.5 | > 11 | > 10.9 µM and 7.33 µM and > 12.5 µM | > 10.9 µM and 2.48 µM and > 12.5 µM | –
3 | CN[C@@H](C)C(=O)N[C@H](C(=O)N1CCC[C@H]1c1nc(C(=O)c2ccc(F)cc2)cs1)C1CCCCC1 | > 100 µM | 31.9 µM | > 100 | 42.8 µM | > 100 µM | 37 µM | > 62.1 µM | > 78.9 | 29.3 µM | > 94.3 µM | 35.2 µM | 44.5 | 20.5 µM | 33.9 µM | 19 µM | 11.2 | 27 | 11.1 µM | 36.1 µM | 16.5
